No end group written: not given here.
Experiments:
D1R neurons (NAc) = test: Whole-cell patch-clamp recordings of D1R-expressing neurons (EPSP, LTP, AMPA/NMDA ratio); type: cell-based, mouse; details: NBQX 10 μM after APV 20 μM
Text: For whole-cell recordings, Drd2-EGFP FVB mice were deeply anesthetized and transcardially perfused with ice-cold cutting artificial cerebrospinal fluid containing (in mM): 87 NaCl, 2.5 KCl, 0.5 CaCl2, 7 MgCl2, 1.25 NaH2PO4, 25 NaHCO3, 25 glucose, and 75 sucrose, bubbled with 95% O2/5% CO2. Parasagittal slices were cut transversely at 300 μm using a vibrating blade microtome (VT1200S, Leica Microsystems). Slices were transferred to normal saline solution containing (in mM): 119 NaCl, 2.5 KCl, 2.5 CaCl2, 1.3 MgCl2, 1.3 NaH2PO4, 26 NaHCO3, and 20 glucose at 32 °C for 30 min and then allowed to recover for 1 h at room temperature before recordings. Individual slices were transferred to a submerged chamber mounted on a fixed-stage upright microscope (Zeiss Axioskop FS) and continuously perfused at 30 °C with normal saline solution containing (in μM): 0 MgCl2, 50 picrotoxin, and 10 glycine. GFP-negative D1 cells were visualized by infrared differential interference contrast microscopy with a water-immersion 63X objective (0.9 NA, Zeiss). Current clamp recordings were performed with unpolished pipettes containing (in mM): 140 K-gluconate, 5 KCl, 2 MgCl2, 10 Hepes, 4 Mg-ATP, 0.3 Na-GTP, 10 Na2-creatine phosphate, 0.2 Na-EGTA, 290 to 300 mOsm, pH 7.3 (final resistance, 3-4MΩ). LTP of EPSPs was induced by HFS in control and RIIβ siP-treated D1 cells (at −70 mV). […]

rats = test: Forced swim test (FST) after intra-accumbens infusion; type: in vivo, rat; details: ketamine 2 µg in 1 µl, subanesthetic, bilateral intra-accumbal
Description: Rats were anesthetized with isoflurane and placed in a stereotaxic frame (Kopf Instruments). Bilateral cannulas (3 mm center-to-center distance, cut 8 mm below pedestal, Plastics One) were placed in NAc core (anterior-posterior to bregma +1.5 mm, medial/lateral ±1.5 mm, depth −6.8 mm). Peptides were bilaterally infused 1 week later in awake and mobile animals. Injection volume was 1 μl of peptide (100 μM in PBS, 10% DMSO, per cerebral hemisphere). Animals were allowed to recover for 1 h prior to behavioral testing. Accuracy was confirmed by infusion of methylene blue dye or direct visualization of cannula tracts postbehavioral testing.
The Porsolt FST was conducted as described previously ([64]). Briefly, one-trial forced swim was used for acute stress. Nonsurgerized rats underwent an 8 min swim in an 8-gallon transparent water filled cylinder at 24 to 25 °C. Animals recovered in their home cages for 1 h prior to brain dissection. The NAc was then microdissected for immunoblotting. […] They were then placed in a locomotor chamber, and locomotor activity was monitored for 30 min in circular donut-shaped locomotor chambers in the dark with a computer-monitored infrared photobeam system (MED-PC, Med Associates). […] The last 6 min of the test were scored for latency to immobility and time immobile, with immobility defined as the time animals spent completely motionless.

phospho-Thr69 RIIβ = test: Slice pharmacology, immunoblot of phospho-Thr69 RIIβ; type: cell-based, rat
Description: (§1) Slice pharmacology was conducted as previously described ([62]). Briefly, striatum was microdissected from 350 μ coronal rat brain slices, equilibrated for 1 h, 30 °C in Kreb’s buffer with 10 μg/ml adenosine deaminase (Roche). […] Briefly, conditions included low Mg^2+ (0.5 mM) and a 30 min tissue recovery in drug-free buffer prior to harvest. Tissue was snap-frozen on dry ice. Immunoblotting was as previously described ([63]) and analyzed using Image J software (NIH). Data from immunoblots with phosphorylation-specific antibodies were normalized to total protein. Antibodies used included those for PKA regulatory subunits (BD Biosciences Cat# 610626, RRID: AB_397958; BD Biosciences Cat# 610609 RRID:AB_397943; BD Biosciences Cat# 612242 RRID:AB_399565), phospho-S114 RIIβ (BD Biosciences Cat# 612550 RRID:AB_399845), and NMDAR1 (BD Biosciences Cat# 556308 RRID:AB_396353), phospho-S845 GluA1 (PhosphoSolutions Cat# p1160-845 RRID:AB_2492128) and phospho-T34 DARPP-32 (PhosphoSolutions Cat# p1025-34 RRID:AB_2492068), and total GluA1 (Millipore Cat# 05-855R RRID:AB_1587070). Total DARPP-32 antibody was from H. Hemmings (Weill Cornell Medical College).

phospho-Ser114 RIIβ = test: Slice pharmacology, immunoblot of phospho-Ser114 RIIβ; type: cell-based, rat; details: striatal slices, NMDA 50 μM, 5 min; *p < 0.05, n = 4
Description: as §1

PKA [1] = test: PKA inhibition curves for WT versus S114D RIIβ (in vitro); type: biochemical; details: means ± S.E.M., n = 3
Description: (§2) Rat recombinant RIIβ was derived as a C-terminal 6XHis fusion by Ni-NTA affinity purification using standard pET vector methods (Novagen). RIIβ was phosphorylated in vitro by Cdk5 or PKA using standard conditions ([55]). Cdk5/p25 was from Millipore, and PKA was from NEB. 32P incorporation was quantitated by PhosphorImager analysis. All kinetic analyses were conducted under empirically defined linear conditions. PKA activity was measured by phosphorylation of recombinant inhibitor-1 ([56]) or DARPP-32 ([14]). For phosphorylation site identification, preparatively phosphorylated RIIβ was subjected to nano-liquid chromatography tandem mass spectrometry as previously described ([57]). Digests were redissolved in 0.1% trifluoracetic acid and loaded onto a ZipTip with C18 resin (Millipore) for purification. Analysis was conducted using nanoelectrospray-QSTAR Pulsar I quadrupole time-of-flight tandem mass spectrometry (MDS Proteomics). Structural model of AKAP/RIIβ dimer interaction was based on published data of AKAP (PDB: 2HWN) ([24]) and RIIβ (PDB: 1CX4) ([58]).

Cdk5 = test: In vitro phosphorylation of RIIβ by Cdk5 (stoichiometry); type: biochemical; details: saturating conditions, 32P incorporation
Description: as §2

[2] = target: T1, Cdk5-dependent phosphorylation of RIIβ (Homo sapiens, UniProt Q00535); test: Inhibition of Cdk5-dependent phosphorylation of RIIβ in vitro by siP; type: biochemical; details: means ± S.E.M.
T1 construct: purchased Millipore
Description: as §2

PKA [3] = test: PKA inhibition by dephospho- vs. phospho-T69 RIIβ; type: biochemical; details: in vitro, n=4
Description: as §2

[4] = tested on: cortico-ventral striatal synapses (NAc); test: Cortico-ventral striatal field recordings (fEPSP, LTP, I/O, PPR); type: cell-based, rat; details: slices
Description: Adult rats were anaesthetized by isoflurane (Piramal Healthcare), and brains were placed in ice-cold sucrose saline solution (4 °C) containing (in mM): 87 NaCl, 75 Sucrose, 2.5 KCl, 1.25 NaH2PO4, 7 MgCl2, 0.5 CaCl2, 25 NaHCO3, and 10 glucose (pH 7.4; saturated with […]). Parasagittal vibratome slices (350 μ thick) containing prefrontal cortex and NAc core were transferred into saline solution containing 125 NaCl, 2.5 KCl, 1.25 NaH2PO4, 1.3 MgCl2, 2 CaCl2, 25 NaHCO3, and 25 glucose (pH 7.4; saturated with […]) and maintained for 20 min at 30 °C, then transferred to room temperature (22–25 °C) and allowed 1 h recovery. […]
Extracellular recordings: fEPSPs were obtained at 25 °C in the presence of the GABAA antagonist (SR95531, Gabazine, 2 μM) and were evoked by square current pulses (0.2 ms) at 0.033 Hz with a bipolar stimulation electrode (FHC) placed at the border of corpus callosum separated by ∼300 to 500 μ from the recording electrode. […] The paired pulse ratio (PPR) paradigm was applied using different inter-stimulus intervals and PPR changes were measured as PPR = second fEPSP amplitude/first fEPSP amplitude. After recording stable baseline for at least 10 min, LTP was induced by HFS (4 trains, 100 Hz, 1 s duration, separated by 20 s). fEPSP amplitude was monitored for at least 50 min after HFS to evaluate LTP. […]

T1 sequence (Q00535 whole entry): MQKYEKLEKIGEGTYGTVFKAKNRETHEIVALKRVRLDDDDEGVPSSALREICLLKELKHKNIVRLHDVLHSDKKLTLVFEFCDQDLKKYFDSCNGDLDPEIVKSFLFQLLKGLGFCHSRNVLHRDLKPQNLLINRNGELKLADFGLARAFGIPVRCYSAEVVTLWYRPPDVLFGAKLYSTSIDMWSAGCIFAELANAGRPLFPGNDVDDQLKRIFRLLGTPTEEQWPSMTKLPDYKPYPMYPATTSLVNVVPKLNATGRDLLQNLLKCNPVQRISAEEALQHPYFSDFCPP
T1 sequence (Q15078 99-307 partner limits assumed): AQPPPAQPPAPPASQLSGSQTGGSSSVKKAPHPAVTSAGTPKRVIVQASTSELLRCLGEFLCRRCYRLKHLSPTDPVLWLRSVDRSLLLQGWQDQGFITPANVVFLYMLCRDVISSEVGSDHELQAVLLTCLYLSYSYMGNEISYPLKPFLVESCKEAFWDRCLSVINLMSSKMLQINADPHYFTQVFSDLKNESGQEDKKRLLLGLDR

How did the “effect on EPSP responses, D1R neurons” value (D1R neurons (NAc)) turn out when `NS(=O)(=O)c1cccc2c1c([N+](=O)[O-])cc1nc(O)c(O)nc12` [NBQX] was run?
The value was “ablated EPSP responses”.

`CNC1(c2ccccc2Cl)CCCCC1=O` (centres unmarked) [ketamine] was tested. Which “RIIβ siP effects compared with ketamine in FST” value (rats) did it give?
Its value is “closely mimicked”.

`CN[C@H](CC(=O)O)C(=O)O` [NMDA, N-methyl-D-aspartate] was tested. Which “phospho-Thr69 RIIβ, NMDA” value (phospho-Thr69 RIIβ; striatal slices, NMDA 50 μM, 5 min, *p < 0.05, n = 4) did it give?
Its value is “strongly reduced the phosphorylation state of Thr69”.

What about the “phospho-Thr69 RIIβ, LTP-like conditions” value (phospho-Thr69 RIIβ; ventral striatal slices, low Mg2+, NMDA 25 μM, 5 min and/or dopamine 10 μM, 15 min, 30 min delay after treatment, n = 5 to 6) of the same molecule?
Its value is “decrease in phospho-Thr69 RIIβ”.

What about the “phospho-Ser114 RIIβ, NMDA” value (phospho-Ser114 RIIβ) of the same molecule?
Its value is “PKA-dependent phosphorylation at Ser114 was increased”.

With `C=C1[C@@H](O)[C@@H]2O[C@]3(CC[C@H](/C=C/[C@@H](C)[C@@H]4CC(C)=C[C@@]5(O[C@H](C[C@@](C)(O)C(=O)O)CC[C@H]5O)O4)O3)CC[C@H]2O[C@@H]1[C@@H](O)C[C@H](C)[C@H]1O[C@@]2(CCCCO2)CC[C@H]1C` [okadaic acid] as the molecule, how does the “basal phospho-Thr69 RIIβ, okadaic acid 200 nM” value (phospho-Thr69 RIIβ; striatal slices, 200 nM, 1 h (selective PP2A inhibition), *p < 0.05, n = 4-5) read?
The value was “increased”.

What about the “basal phospho-Thr69 RIIβ, okadaic acid 1 μM” value (phospho-Thr69 RIIβ; striatal slices, 1 μM, 1 h (PP1 inhibition), **p < 0.01, n = 4-5) of the same molecule?
The value was “increased”.

What about the “effect on NMDA-induced reduction of phospho-Thr69 RIIβ” value (phospho-Thr69 RIIβ; striatal slices, NMDA 25 µM, 5 min, cyclosporin A 10 µM, 1 h or okadaic acid 1 µM, 1 h, n = 4-6) of the same molecule?
The value was “attenuated the effect of NMDA”.

Which results are given for “RIIβ: Rat recombinant RIIβ, C-terminal 6XHis fusion; PKA regulatory subunit”?
IC50 (PKA [1]): 0.0015 ± 0.0003 µM; maximal stoichiometry of phosphorylation by Cdk5 (Cdk5): 0.6 mol PO4/mol of substrate

How did the IC50 [2] turn out when “RQIKIWFQNRRMKWKKAGAAAGGGTPSKGVNFAEE [RIIβ siP]” was run?
Its IC50 is 7.14 ± 2.28 µM.

“Thr69 RIIβ: RIIβ phosphorylated at Thr69 by Cdk5” was tested. Which “effect of Thr69 phosphorylation on inhibition of PKA catalytic activity by RIIβ” value (PKA [3]) did it give?
Its value is “did not alter the inhibition of PKA catalytic activity”.

Which “LTP (HFS-induced), D1 agonist” value ([4]; SKF81297 2 µM, 15 min bath application, #p < 0.05 control vs SKF, n = 7) does the source give for `Oc1cc2c(c(Cl)c1O)CCNCC2c1ccccc1` (centres unmarked) [SKF81297] here?
The value was “enhanced”.

“RQIKIWFQNRRMKWKK-AAGAGSGAVAFKGANGEA [scrambled siP, penetratin-tagged scramble control peptide]” was tested. Which “fEPSP amplitude after HFS (LTP)” value ([4]; 10 μM for 15 min, washout 25 min, maintained through 50 min following HFS, 25 °C, n = 5) did it give?
Its value is 0.31 ± 0.03 mV.

Source: article PMC9386499, “Integrated regulation of PKA by fast and slow neurotransmission in the nucleus accumbens controls plasticity and stress responses” (The Journal of Biological Chemistry, 2022)
